US8148391B2 (Cephalon, Inc., priority 2006, dated 2012)
Like-named read-outs stand apart in the source and are kept apart here.

What was measured:
[1] = biological target: T1, baculovirus-expressed ALK (Homo sapiens, UniProt Q9UM73); test: ALK Kinase Assay (ELISA-type, time-resolved fluorescence); type: biochemical
T1 construct: host or cells: baculovirus expression system
In short: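 Wells were coated with phospholipase C-γ at 10 μg/mL in Tris-buffered saline. Adding 30 ng/ml enzyme started the reaction, which ran at 37° C for 15 minutes before Eu-N1 PT66 antibody detection. Percent inhibition versus log10 concentration gave IC50 by variable-slope fit.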

[2] = biological target: T2, c-Met (cytoplasmic domain) (Homo sapiens, UniProt P08581); test: c-Met Kinase Assay (same methods as for ALK, with modifications); type: biochemical
T2 construct: 10 ng/mL c-Met (cytoplasmic domain, Invitrogen Corporation #PV3143); purchased Invitrogen Corporation PV3143
In short: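 IC50 values were fitted by variable-slope sigmoidal regression of percent inhibition against log compound concentration. Phosphorylation was read with Eu-N1 PT66 antibody after a 15 min, 37 °C reaction. The reaction was initiated with 10 ng/mL c-Met cytoplasmic domain on wells coated with 10 μg/mL PLC-γ in TBS.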

[3] = 1 μM ATP (Km level), 30 ng/ml ALK, 37° C., 15 minutes, read-out: ALK Activity (ALK kinase inhibition, IC50 class)
[4] = 1 μM ATP (Km level), 10 ng/mL c-Met, read-out: cMet Activity (c-Met kinase inhibition, IC50 class)
[5] = ALK kinase inhibition, 1 μM ATP, read-out: ALK Activity
[6] = c-Met kinase inhibition, 1 μM ATP, read-out: cMet Activity
[7] = 1 μM ATP (Km level), read-out: ALK Activity (ALK Kinase Inhibition, IC50)
[8] = 1 μM ATP (Km level), read-out: cMet Activity (c-Met Kinase Inhibition, IC50)
[9] = ALK kinase inhibition, 1 μM ATP (Km level), read-out: ALK Activity
[10] = c-Met kinase inhibition, 1 μM ATP (Km level), read-out: cMet Activity

T2 sequence (P08581 956-1390 limits assumed): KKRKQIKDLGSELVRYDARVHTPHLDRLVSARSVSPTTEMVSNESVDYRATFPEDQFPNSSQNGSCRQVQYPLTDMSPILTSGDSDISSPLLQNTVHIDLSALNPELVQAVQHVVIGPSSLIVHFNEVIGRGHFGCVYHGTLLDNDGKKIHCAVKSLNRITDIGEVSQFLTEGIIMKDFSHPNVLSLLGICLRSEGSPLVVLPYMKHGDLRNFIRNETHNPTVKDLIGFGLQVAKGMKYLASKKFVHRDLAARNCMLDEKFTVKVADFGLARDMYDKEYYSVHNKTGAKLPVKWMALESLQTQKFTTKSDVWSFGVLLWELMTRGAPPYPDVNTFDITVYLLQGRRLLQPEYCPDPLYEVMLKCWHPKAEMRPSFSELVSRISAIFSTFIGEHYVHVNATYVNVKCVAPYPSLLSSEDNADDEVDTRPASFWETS
T1 sequence (Q9UM73 19-1620): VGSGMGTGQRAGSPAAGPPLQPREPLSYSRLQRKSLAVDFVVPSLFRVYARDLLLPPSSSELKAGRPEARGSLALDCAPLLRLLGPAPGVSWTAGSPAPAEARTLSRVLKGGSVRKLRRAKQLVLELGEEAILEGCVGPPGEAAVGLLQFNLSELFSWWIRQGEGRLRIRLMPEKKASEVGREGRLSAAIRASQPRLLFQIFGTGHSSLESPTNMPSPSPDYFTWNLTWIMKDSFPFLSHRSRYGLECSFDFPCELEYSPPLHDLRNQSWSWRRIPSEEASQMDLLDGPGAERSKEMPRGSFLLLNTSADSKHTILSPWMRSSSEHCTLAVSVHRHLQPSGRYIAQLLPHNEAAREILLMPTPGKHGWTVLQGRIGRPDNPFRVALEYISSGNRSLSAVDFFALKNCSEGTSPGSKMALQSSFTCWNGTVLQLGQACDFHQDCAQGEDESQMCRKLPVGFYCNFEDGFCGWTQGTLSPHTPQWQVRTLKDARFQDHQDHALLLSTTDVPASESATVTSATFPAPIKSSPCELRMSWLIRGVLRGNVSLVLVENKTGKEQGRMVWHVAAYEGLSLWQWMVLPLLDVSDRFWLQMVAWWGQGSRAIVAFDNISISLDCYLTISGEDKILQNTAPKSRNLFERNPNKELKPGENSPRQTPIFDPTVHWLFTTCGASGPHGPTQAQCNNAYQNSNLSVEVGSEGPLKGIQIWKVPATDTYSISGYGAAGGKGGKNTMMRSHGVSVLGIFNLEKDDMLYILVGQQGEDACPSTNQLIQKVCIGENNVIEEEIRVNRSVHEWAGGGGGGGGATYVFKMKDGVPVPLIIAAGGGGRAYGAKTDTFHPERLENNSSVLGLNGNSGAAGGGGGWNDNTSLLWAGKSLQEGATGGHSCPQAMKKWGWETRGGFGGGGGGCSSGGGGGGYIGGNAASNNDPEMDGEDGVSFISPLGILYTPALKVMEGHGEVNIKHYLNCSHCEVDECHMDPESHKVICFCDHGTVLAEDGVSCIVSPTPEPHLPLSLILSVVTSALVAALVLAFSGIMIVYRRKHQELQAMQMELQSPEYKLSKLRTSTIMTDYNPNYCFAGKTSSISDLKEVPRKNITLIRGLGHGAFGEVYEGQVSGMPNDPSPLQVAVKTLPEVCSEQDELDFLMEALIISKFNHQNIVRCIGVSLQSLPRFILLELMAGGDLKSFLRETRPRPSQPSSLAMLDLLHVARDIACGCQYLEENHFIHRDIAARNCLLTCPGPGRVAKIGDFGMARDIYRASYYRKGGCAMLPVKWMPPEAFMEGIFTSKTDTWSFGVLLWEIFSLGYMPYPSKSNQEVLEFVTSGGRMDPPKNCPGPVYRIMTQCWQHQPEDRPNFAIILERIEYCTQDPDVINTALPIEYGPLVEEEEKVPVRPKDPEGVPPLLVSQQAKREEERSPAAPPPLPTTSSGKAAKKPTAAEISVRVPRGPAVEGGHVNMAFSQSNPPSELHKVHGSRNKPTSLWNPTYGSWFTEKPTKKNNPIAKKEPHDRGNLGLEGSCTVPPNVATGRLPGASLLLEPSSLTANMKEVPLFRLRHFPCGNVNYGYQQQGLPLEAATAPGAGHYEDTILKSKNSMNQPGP

Compound	IC50 [1, 3] [nM]	IC50 [2, 4] [nM]	IC50 [1, 5] [nM]	IC50 [2, 6] [nM]	other results
CN1C(=O)CCCc2cc(Nc3ncc(Cl)c(Nc4c(F)cccc4C(=O)NCCC#N)n3)ccc21 [Example 1042, 2-[5-Chloro-2-(1-methyl-2-oxo-2,3,4,5-tetrahydro-1H-benzo[b]azepin-7-ylamino)-pyrimidin-4-ylamino]-N-(2-cyano-ethyl)-3-fluoro-benzamide]	100 to 1000	< 100			
CNC(=O)c1cc(OC)ccc1Nc1nc(Nc2ccc3c(c2)CCN(CCOC)CC3)ncc1Cl [Example 618, 2-{5-Chloro-2-[3-(2-methoxy-ethyl)-2,3,4,5-tetrahydro-1H-benzo[d]azepin-7-ylamino]-pyrimidin-4-ylamino}-5-methoxy-N-methyl-benzamide]					IC50 [1, 7]: < 100 nM; IC50 [2, 8]: < 100 nM
CCNC(=O)c1cccc(F)c1Nc1nc(Nc2cc3c(cc2OC)CCN(CC(=O)N(C)C)CC3)ncc1Cl [Example 1119, 2-[5-Chloro-2-(3-dimethylcarbamoylmethyl-8-methoxy-2,3,4,5-tetrahydro-1H-benzo[d]azepin-7-ylamino)-pyrimidin-4-ylamino]-N-ethyl-3-fluoro-benzamide]	< 100	1000 to 10000			
CCN1CCc2ccc(Nc3ncc(Cl)c(Nc4ccccc4C(=O)NC)n3)c(OC)c2CC1 [Example 234, 2-[5-Chloro-2-(3-ethyl-6-methoxy-2,3,4,5-tetrahydro-1H-benzo[d]azepin-7-ylamino)-pyrimidin-4-ylamino]-N-methyl-benzamide]					IC50 [1, 9]: < 100 nM; IC50 [2, 10]: > 10000 nM
COCCN1CCc2ccc(Nc3ncc(Cl)c(Nc4ccc(N5CCOCC5)cc4S(=O)(=O)N(C)C)n3)cc2CC1 [Example 853, 2-{5-Chloro-2-[3-(2-methoxy-ethyl)-2,3,4,5-tetrahydro-1H-benzo[d]azepin-7-ylamino]-pyrimidin-4-ylamino}-N,N-dimethyl-5-morpholin-4-yl-benzenesulfonamide]					IC50 [1, 7]: < 100 nM; IC50 [2, 8]: 1000 to 10000 nM
COCCN1CCc2ccc(Nc3ncc(Cl)c(N[C@@H]4CCCC[C@H]4NC(=O)C(F)(F)F)n3)cc2CC1 [Example 450, N-((1R,2R)-2-{5-Chloro-2-[3-(2-methoxy-ethyl)-2,3,4,5-tetrahydro-1H-benzo[d]azepin-7-ylamino]-pyrimidin-4-ylamino}-cyclohexyl)-2,2,2-trifluoro-acetamide]					IC50 [1, 9]: < 100 nM; IC50 [2, 10]: 100 to 1000 nM
CNC(=O)c1ccccc1Nc1nc(Nc2ccc3c(c2)CCN(S(C)(=O)=O)CC3)ncc1Cl [Example 42, 2-[5-Chloro-2-(3-methanesulfonyl-2,3,4,5-tetrahydro-1H-benzo[d]azepin-7-ylamino)-pyrimidin-4-ylamino]-N-methyl-benzamide]					IC50 [1, 9]: < 100 nM; IC50 [2, 10]: < 100 nM
CNC(=O)c1ccccc1Nc1nc(Nc2ccc3c(c2)CCN(C)CC3)ncc1Cl [Example 46, 2-[5-Chloro-2-(3-methyl-2,3,4,5-tetrahydro-1H-benzo[d]azepin-7-ylamino)-pyrimidin-4-ylamino]-N-methyl-benzamide]					IC50 [1, 9]: < 100 nM; IC50 [2, 10]: < 100 nM
3-{5-Chloro-2-[3-(2-methoxy-ethyl)-2,3,4,5-tetrahydro-1H-benzo[d]azepin-7-ylamino]-pyrimidin-4-ylamino}-4-methyl-thiophene-2-carboxylic acid methylamide [Example 1363]	< 100	< 100			
CNC(=O)CN1CCc2cc(Nc3ncc(Cl)c(Nc4ccccc4C(=O)NC)n3)c(OC)cc2CC1 [Example 1114, 2-[5-Chloro-2-(8-methoxy-3-methylcarbamoylmethyl-2,3,4,5-tetrahydro-1H-benzo[d]azepin-7-ylamino)-pyrimidin-4-ylamino]-N-methyl-benzamide]	< 100	1000 to 10000			
Cc1cccc(-c2ccccc2Nc2nc(Nc3ccc4c(c3)C(C)(C)CCC(=O)N4)ncc2Cl)n1 [Example 1008, 7-{5-Chloro-4-[2-(6-methyl-pyridin-2-yl)-phenylamino]-pyrimidin-2-ylamino}-5,5-dimethyl-1,3,4,5-tetrahydro-benzo[b]azepin-2-one]					IC50 [1, 7]: < 100 nM; IC50 [2, 8]: 1000 to 10000 nM

Continued, in another order:

IC50 [1, 3] [nM]	IC50 [2, 4] [nM]	IC50 [1, 5] [nM]	IC50 [2, 6] [nM]	Compound	other results
		1000 to 10000	< 100	CNC(=O)c1cccc(C)c1Nc1nc(Nc2ccc3c(c2)CCOC(=O)N3C)ncc1Cl [Example 1744, 2-[5-Chloro-2-(5-methyl-6-oxo-5,6,8,9-tetrahydro-7-oxa-5-aza-benzocyclohepten-2-ylamino)-pyrimidin-4-ylamino]-3,N-dimethyl-benzamide]	
1000 to 10000	> 10000			COCCN1CCc2ccc(Nc3ncc(Cl)c(N[C@@H]4CCC[C@H](NS(C)(=O)=O)C4)n3)cc2CC1 (relative stereo) [Example 1380, rel-N-((1S,3R)-3-{5-Chloro-2-[3-(2-methoxy-ethyl)-2,3,4,5-tetrahydro-1H-benzo[d]azepin-7-ylamino]-pyrimidin-4-ylamino}-cyclohexyl)-methanesulfonamide]	
		< 100	< 100	Cc1n[nH]c(-c2ccccc2Nc2nc(Nc3ccc4c(c3)CCOC(=O)N4C)ncc2Cl)n1 [Example 1788, 2-{5-Chloro-4-[2-(5-methyl-2H-[1,2,4]triazol-3-yl)-phenylamino]-pyrimidin-2-ylamino}-5-methyl-8,9-dihydro-5H-7-oxa-5-aza-benzocyclohepten-6-one]	
100 to 1000	1000 to 10000			CCN1C(=O)CCC(C)(C)c2ccc(Nc3ncc(Cl)c(Nc4c(F)cccc4N(C)CCC#N)n3)cc21 [Example 1264, 3-({2-[5-Chloro-2-(1-ethyl-5,5-dimethyl-2-oxo-2,3,4,5-tetrahydro-1H-1-benzazepin-8-ylamino)-pyrimidin-4-ylamino]-3-fluoro-phenyl}-methyl-amino)-propionitrile]	
1000 to 10000	> 10000			COCCN1CCc2cc(Nc3ncc(Cl)c(N[C@@H]4[C@H](C(N)=O)[C@H]5C=C[C@@H]4C5)n3)c(OC)cc2CC1 [Example 1322, (1R,2R,3S,4S)-3-{5-Chloro-2-[8-methoxy-3-(2-methoxy-ethyl)-2,3,4,5-tetrahydro-1H-benzo[d]azepin-7-ylamino]-pyrimidin-4-ylamino}-bicyclo[2.2.1]hept-5-ene-2-carboxylic acid amide]	
100 to 1000	1000 to 10000			COCCN1CCc2ccc(Nc3ncc(Cl)c(N[C@H]4CC[C@@H](N(CC#N)S(C)(=O)=O)CC4)n3)cc2CC1 [Example 1384, cis-N-(4-{5-Chloro-2-[3-(2-methoxy-ethyl)-2,3,4,5-tetrahydro-1H-benzo[d]azepin-7-ylamino]-pyrimidin-4-ylamino}-cyclohexyl)-N-cyanomethyl-methanesulfonamide]	
		< 100	< 100	CCN1C(=O)CCC(C)(C)c2ccc(Nc3ncc(Cl)c(Nc4ccccc4C(=O)NC)n3)cc21 [Example 1589, 2-[5-Chloro-2-(1-ethyl-5,5-dimethyl-2-oxo-2,3,4,5-tetrahydro-1H-benzo[b]azepin-8-ylamino)-pyrimidin-4-ylamino]-N-methyl-benzamide]	
		< 100	< 100	CNC(=O)c1cccc(F)c1Nc1nc(Nc2ccc3c(c2)CCCC(=O)N3CCOC)ncc1Br [Example 1472, 2-{5-Bromo-2-[1-(2-methoxy-ethyl)-2-oxo-2,3,4,5-tetrahydro-1H-benzo[b]azepin-7-ylamino]-pyrimidin-4-ylamino}-3-fluoro-N-methyl-benzamide]	
		100 to 1000	< 100	CNC(=O)c1cccc(F)c1Nc1nc(Nc2ccc3c(c2)N(CCOC)C(=O)CCC3)ncc1Br [Example 1473, 2-{5-Bromo-2-[1-(2-methoxy-ethyl)-2-oxo-2,3,4,5-tetrahydro-1H-benzo[b]azepin-8-ylamino]-pyrimidin-4-ylamino}-3-fluoro-N-methyl-benzamide]	
		1000 to 10000	100 to 1000	CNC(=O)c1ccsc1Nc1nc(Nc2ccc3c(c2)NC(=O)CCC3)ncc1Cl [Example 1485, 2-[5-Chloro-2-(2-oxo-2,3,4,5-tetrahydro-1H-benzo[b]azepin-8-ylamino)-pyrimidin-4-ylamino]-thiophene-3-carboxylic acid methylamide]	
		< 100	100 to 1000	CN1C(=O)OCCc2cc(Nc3ncc(Cl)c(Nc4ccccc4-n4cccn4)n3)ccc21 [Example 1766, 2-[5-Chloro-4-(2-pyrazol-1-yl-phenylamino)-pyrimidin-2-ylamino]-5-methyl-8,9-dihydro-5H-7-oxa-5-aza-benzocyclohepten-6-one]	
1000 to 10000	> 10000			COc1cc2c(cc1Nc1ncc(Cl)c(Nc3cc(C(N)=O)ccc3OC)n1)CCN(C(=O)CN(C)C)CC2 [Example 1139, 3-{5-Chloro-2-[3-(2-dimethylamino-acetyl)-8-methoxy-2,3,4,5-tetrahydro-1H-benzo[d]azepin-7-ylamino]-pyrimidin-4-ylamino}-4-methoxy-benzamide]	
		< 100	> 10000	CCN1CC(=O)Nc2cc(Nc3ncc(Cl)c(N[C@H]4[C@@H](C(N)=O)[C@@H]5C=C[C@H]4C5)n3)c(OC)cc2C1 [Example 1663, (1S,2S,3R,4R)-3-[5-Chloro-2-(4-ethyl-7-methoxy-2-oxo-2,3,4,5-tetrahydro-1H-benzo[e][1,4]diazepin-8-ylamino)-pyrimidin-4-ylamino]-bicyclo-[2.2.1]hept-5-ene-2-carboxylic acid amide]	
